PMC3674108 (Journal of the American Chemical Society, 2013)
“Also recorded” adds a separate entry of the source. Read-outs that look alike come from different tables or passages of the source. Marks after values point to notes of the source that are not given here.

Experiments:
[1] = molecular target: T1, ecTSase (Escherichia coli, UniProt P0A884); assay: Noncompetitive KIE experiments; format: biochemical; details: w/ 50 mM MgCl2, 25 °C; for KMCH2H4folate / kcat: 100 μM dUMP, pH 7.5
[2] = molecular target: ecTSase-dUMP complex; format: binding, Escherichia coli; details: read-out: KdCH4H4fol; w/o Mg^2+, 25 °C, calculated using Eq 5
[3] = molecular target: ecTSase-dUMP-Mg^2+ complex; format: binding, Escherichia coli; details: read-out: KdCH4H4fol; w/ 50 mM MgCl2, 25 °C, calculated using Eq 5
[4] = molecular target: Escherichia coli TSase (ecTSase) (Escherichia coli, UniProt P0A884); assay: Steady-state initial velocities of ecTSase; format: biochemical; details: for Hill coefficient x (inhibitory binding mode): Eq 3
Sequence of Escherichia coli TSase (ecTSase) (P0A884 whole entry): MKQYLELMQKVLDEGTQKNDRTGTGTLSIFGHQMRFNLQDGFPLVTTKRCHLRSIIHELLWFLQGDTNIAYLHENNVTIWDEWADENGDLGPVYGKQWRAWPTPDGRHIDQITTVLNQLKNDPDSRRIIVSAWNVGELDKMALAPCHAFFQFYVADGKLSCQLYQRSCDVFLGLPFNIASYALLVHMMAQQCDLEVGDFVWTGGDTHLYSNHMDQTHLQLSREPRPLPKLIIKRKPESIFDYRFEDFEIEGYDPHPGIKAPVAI

[5] = molecular target: T2, apo-ecTSase (Escherichia coli, UniProt P0A884); details: read-out: Kd of Mg^2+ for apo-ecTSase; 25 °C, pH 7.5, one-site binding fit
T2 sequence (P0A884 whole entry): as above

[6] = molecular target: T1, ecTSase
[7] = molecular target: T2, apo-ecTSase; assay: biochemical
[8] = molecular target: ecTSase-Mg^2+ complex (Escherichia coli, UniProt P0A884); assay: Fluorescence assay, dUMP titration into ecTSase pre-incubated with MgCl2; format: binding
Sequence of ecTSase-Mg^2+ complex (P0A884 whole entry, one chain of several): as the sequence (P0A884 whole entry) above

T1 sequence (P0A884 whole entry): as above

SMILES: [2H][C@]12CNc3nc(N)[nH]c(=O)c3N1CN(c1ccc(C(=O)N[C@@H](CCC(=O)O)C(=O)O)cc1)C2 [6R-D-CH2H4fol]
- KMCH2H4folate [1]: 19 ± 5 µM
- kcat [1]: 2.3 ± 0.2 s⁻¹

SMILES: Nc1nc2c(c(=O)[nH]1)N1CN(c3ccc(C(=O)N[C@@H](CCC(=O)O)C(=O)O)cc3)CC1CN2 (stereo partly drawn) [CH2H4fol, N^5,N^10-methylene-5,6,7,8-tetrahydrofolate]
- Kd [2]: 17 ± 2 µM
- Kd [3]: 8 ± 1 µM
- Hill coefficient x (inhibitory binding mode) ([4]; absence of Mg^2+, best-fit integer): 2
- Hill coefficient n (productive binding mode) ([4]; both absence and presence of Mg^2+, best-fit integer, Eq 2): 1
- Hill coefficient x (inhibitory binding mode) ([4]; presence of Mg^2+ (50 mM MgCl2), best-fit integer): 1
- KMCH4H4fol ([4]; w/ 50 mM MgCl2, 25 °C, 100 μM dUMP): 15 ± 1 µM
- KMCH4H4fol ([4]; w/o Mg^2+, 25 °C): 17 ± 2 µM
- KMCH2H4folate [1]: 15 ± 1 µM
- kcat [1]: 8.7 ± 0.2 s⁻¹

SMILES: [Ca+2].[Cl-].[Cl-] [CaCl2]
- effect on initial velocities (ionic strength control) ([4]; 50 mM CaCl2, 25 °C): no difference; also recorded: no effects on the initial velocities

SMILES: [Mg+2] [Mg^2+]
- Kd [5]: 27000 ± 7000 µM
- increase of kcat (hydride transfer rate) by Mg^2+ ([4]; 50 mM MgCl2, 5-35 °C): ca. 7 fold
- increase of the Michaelis constant of dUMP by Mg^2+ ([4]; 50 mM MgCl2, 25 °C): ca. 5 fold
- reduction of activation free energy ΔG^‡ of kcat by Mg^2+ ([4]; 50 mM MgCl2, 25 °C): ca. 1 kcal/mol
- reduction of entropy of activation TΔS^‡ of kcat by Mg^2+ ([4]; 50 mM MgCl2, 25 °C): ca. 1 kcal/mol
- -TΔS^‡ at 25 °C from fitting kcat to the Eyring equation ([4]; w/ 50 mM MgCl2): 53.6 ± 0.84 kJ/mol
- ΔH^‡ from fitting kcat to the Eyring equation ([4]; w/ 50 mM MgCl2, 5-35 °C): 14.2 ± 0.84 kJ/mol
- ΔG^‡ from fitting kcat to the Eyring equation ([4]; w/ 50 mM MgCl2, 25 °C): 67.8 ± 1.7 kJ/mol
- AH/AT (isotope effect on the Arrhenius prefactors of the hydride transfer) ([6]; w/ 50 mM MgCl2): 6.6 ± 1.3
- intrinsic H/D KIE (^Dk) on the hydride transfer ([6]; w/ 50 mM MgCl2, 25 °C, competitive KIE experiment): 3.9 ± 0.2^a
- observed H/D KIE on kcat (^Dkcat) [1]: 3.8 ± 0.3

SMILES: O=c1ccn([C@H]2C[C@H](O)[C@@H](COP(=O)(O)O)O2)c(=O)[nH]1 [dUMP, 2’-deoxyuridine-5’-monophosphate]
- Kd [7]: 8.5 ± 0.9 µM
- Kd [8]: 14 ± 2 µM
- KMdUMP ([4]; w/ 50 mM MgCl2, 25 °C, 150 μM CH2H4fol): 2.4 ± 0.2 µM
- KMdUMP ([4]; w/o Mg^2+, 25 °C): 0.5 ± 0.1 µM
